Structures can show the parent of a compound that is named as a salt.
Molecular target: T1, recombinant human LTA4 hydrolase (rhLTA4H) (Homo sapiens, UniProt P09960)
T1 construct: made in house; host or cells: Spodoptera frugiperda (Sf-9) cells, baculovirus (pFastBac1)
T1 sequence (P09960 1-611): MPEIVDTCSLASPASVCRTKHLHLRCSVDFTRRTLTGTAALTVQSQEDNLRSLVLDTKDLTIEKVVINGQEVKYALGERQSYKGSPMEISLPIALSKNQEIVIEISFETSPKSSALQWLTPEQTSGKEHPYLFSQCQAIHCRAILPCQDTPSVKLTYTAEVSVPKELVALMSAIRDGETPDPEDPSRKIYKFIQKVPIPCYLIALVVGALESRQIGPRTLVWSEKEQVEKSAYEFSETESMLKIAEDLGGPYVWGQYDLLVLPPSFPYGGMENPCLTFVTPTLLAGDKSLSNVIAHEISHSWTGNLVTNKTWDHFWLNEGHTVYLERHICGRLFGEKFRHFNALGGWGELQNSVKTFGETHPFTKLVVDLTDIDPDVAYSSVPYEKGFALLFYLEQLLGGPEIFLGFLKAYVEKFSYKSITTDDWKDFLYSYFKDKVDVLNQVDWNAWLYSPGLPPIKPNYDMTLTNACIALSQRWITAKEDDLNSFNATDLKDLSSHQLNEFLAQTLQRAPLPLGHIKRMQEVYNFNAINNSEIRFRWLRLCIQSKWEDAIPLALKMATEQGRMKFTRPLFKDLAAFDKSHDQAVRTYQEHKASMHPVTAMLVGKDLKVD
Test: Recombinant Human LTA4 Hydrolase Assay for LTA4 Hydrolase Inhibitor Activity
Type: biochemical
Settings: average of results obtained; LTB4 quantified by enzyme-linked immunoassay
Procedure, shortened: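 Baculovirus/Sf-9-expressed human LTA4 hydrolase (36 ng) preincubated with compound 10 min at rt in 0.1 M potassium phosphate pH 7.4, 5 mg/mL fatty-acid-free BSA. Reaction started with 9 ng LTA4 free acid, run 10 min at rt; LTB4 measured by enzyme immunoassay, IC50 from 4-parameter fit.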

| Compound | Ki |
| --- | --- |
| O=C(N1C[C@H]2C[C@@H]1CN2Cc1ccc(Oc2nc3ccccc3s2)cc1)C1(O)CC1 [Example 26, (R,R)-{5-[4-(Benzothiazol-2-yloxy)-benzyl]-2,5-diaza-bicyclo[2.2.1]hept-2-yl}-(1-hydroxy-cyclopropyl)-methanone] | 37 nM |
| CS(=O)(=O)N1CC2CCC(C1)N2CCc1ccc(Oc2nc3cc(F)ccc3s2)cc1 [Example 210, meso-5-Fluoro-2-{4-[2-(3-methanesulfonyl-3,8-diaza-bicyclo[3.2.1]oct-8-yl)-ethyl]-phenoxy}-benzothiazole] | 163 nM |
| NC(=O)N[C@@H]1C[C@H]2CC[C@@H](C1)N2CCc1ccc(Oc2nc3cc(F)ccc3s2)cc1 [Example 242, meso-exo-(8-{2-[4-(5-Fluoro-benzothiazol-2-yloxy)-phenyl]-ethyl}-8-aza-bicyclo[3.2.1]oct-3-yl)-urea] | 398 nM |
| CS(=O)(=O)N[C@H]1C[C@H]2CC[C@@H](C1)N2Cc1ccc(Oc2nc3c(Cl)cccc3s2)cc1 [Example 167, meso-endo-N-{8-[4-(4-Chloro-benzothiazol-2-yloxy)-benzyl]-8-aza-bicyclo[3.2.1]oct-3-yl}-methanesulfonamide] | 33 nM |
| CS(=O)(=O)N1C[C@@H]2C[C@H]1CN2CCOc1ccc(Oc2nc3c(F)cccc3s2)cc1 [Example 191, (S,S)-4-Fluoro-2-{4-[2-(5-methanesulfonyl-2,5-diaza-bicyclo[2.2.1]hept-2-yl)-ethoxy]-phenoxy}-benzothiazole] | 32 nM |
| CS(=O)(=O)N1C[C@@H]2C[C@H]1CN2Cc1ccc(Oc2nc3ccc(F)cc3s2)cc1 [Example 230, (S,S)-6-Fluoro-2-[4-(5-methanesulfonyl-2,5-diaza-bicyclo[2.2.1]hept-2-ylmethyl)-phenoxy]-benzothiazole] | 397 nM |
| CC(=O)N[C@H]1C[C@H]2CC[C@@H](C1)N2Cc1ccc(Oc2nc3c(F)cccc3s2)cc1 [Example 68, meso-endo-N-{8-[4-(4-Fluoro-benzothiazol-2-yloxy)-benzyl]-8-aza-bicyclo[3.2.1]oct-3-yl}-acetamide] | 2 nM |
| NC(=O)N1CC2CCC(C1)N2Cc1ccc(Oc2nc3ccccc3s2)cc1F [Example 76, meso-8-[4-(Benzothiazol-2-yloxy)-2-fluoro-benzyl]-3,8-diaza-bicyclo[3.2.1]octane-3-carboxylic acid amide] | 195 nM |
| NC(=O)N1C[C@H]2C[C@@H]1CN2CCc1ccc(Oc2nc3c(Cl)cccc3s2)cc1 [Example 252, (R,R)-5-{2-[4-(4-Chloro-benzothiazol-2-yloxy)-phenyl]-ethyl}-2,5-diaza-bicyclo[2.2.1]heptane-2-carboxylic acid amide] | 108 nM |
| CC(=O)N1[C@@H]2CC[C@H]1C[C@H](NCc1ccc(Oc3nc4cccc(Cl)c4s3)cc1)C2 [Example 166, meso-exo-1-{3-[4-(7-Chloro-benzothiazol-2-yloxy)-benzylamino]-8-aza-bicyclo[3.2.1]oct-8-yl}-ethanone] | 1900 nM |
| CS(=O)(=O)N1C[C@H]2C[C@@H]1CN2CCc1ccc(Oc2nc3cccc(Cl)c3s2)cc1 [Example 192, (R,R)-7-Chloro-2-{4-[2-(5-methanesulfonyl-2,5-diaza-bicyclo[2.2.1]hept-2-yl)-ethyl]-phenoxy}-benzothiazole] | > 10000 nM |
| NCC(=O)N1C[C@H]2C[C@@H]1CN2Cc1ccc(Oc2nc3ccccc3s2)cc1 [Example 29, (R,R)-2-Amino-1-{5-[4-(benzothiazol-2-yloxy)-benzyl]-2,5-diaza-bicyclo[2.2.1]hept-2-yl}-ethanone] | 77 nM |
| NC(=O)N[C@H]1C[C@H]2CC[C@@H](C1)N2CCc1ccc(Oc2nc3ccc(Cl)cc3s2)cc1 [Example 239, meso-endo-(8-{2-[4-(6-Chloro-benzothiazol-2-yloxy)-phenyl]-ethyl}-8-aza-bicyclo[3.2.1]oct-3-yl)-urea] | 130 nM |
| CC(=O)N1C[C@H]2C[C@@H]1CN2Cc1ccc(Oc2nc3c(Cl)cccc3s2)cc1 [Example 164, (R,R)-1-{5-[4-(4-Chloro-benzothiazol-2-yloxy)-benzyl]-2,5-diaza-bicyclo[2.2.1]hept-2-yl}-ethanone] | 417 nM |
| NC(=O)N[C@@H]1C[C@H]2CC[C@@H](C1)N2Cc1ccc(Oc2nc3c(Cl)cccc3s2)cc1 [Example 229, meso-exo-{8-[4-(4-Chloro-benzothiazol-2-yloxy)-benzyl]-8-aza-bicyclo[3.2.1]oct-3-yl}-urea] | 20 nM |
| COCC(=O)N1C[C@@H]2C[C@H]1CN2Cc1ccc(Oc2nc3ccccc3s2)cc1 [Example 41, (S,S)-1-{5-[4-(Benzothiazol-2-yloxy)-benzyl]-2,5-diaza-bicyclo[2.2.1]hept-2-yl}-2-methoxy-ethanone] | 15 nM |
| CS(=O)(=O)N1C[C@@H]2C[C@H]1CN2CCc1ccc(Oc2nc3cccc(F)c3s2)cc1 [Example 232, (S,S)-7-Fluoro-2-{4-[2-(5-methanesulfonyl-2,5-diaza-bicyclo[2.2.1]hept-2-yl)-ethyl]-phenoxy}-benzothiazole] | 72 nM |
| CC(=O)N[C@H]1C[C@H]2CC[C@@H](C1)N2Cc1ccc(Oc2nc3ccc(C)cc3s2)cc1 [Example 73, meso-endo-N-{8-[4-(6-Methyl-benzothiazol-2-yloxy)-benzyl]-8-aza-bicyclo[3.2.1]oct-3-yl}-acetamide] | 33 nM |
| CS(=O)(=O)N1C[C@@H]2C[C@H]1CN2CCc1ccc(Oc2nc3ccccc3s2)cc1 [Example 47, (S,S)-2-{4-[2-(5-Methanesulfonyl-2,5-diaza-bicyclo[2.2.1]hept-2-yl)-ethyl]-phenoxy}-benzothiazole] | 57 nM |
| Cc1ccc2sc(Oc3ccc(OCCN4C[C@@H]5C[C@H]4CN5S(C)(=O)=O)cc3)nc2c1 [Example 255, (S,S)-2-{4-[2-(5-Methanesulfonyl-2,5-diaza-bicyclo[2.2.1]hept-2-yl)-ethoxy]-phenoxy}-5-methyl-benzothiazole] | 277 nM |
| O=C(CO)N1C[C@@H]2C[C@H]1CN2CCc1ccc(Oc2nc3ccccc3s2)cc1 [Example 15, (S,S)-1-(5-{2-[4-(Benzothiazol-2-yloxy)-phenyl]-ethyl}-2,5-diaza-bicyclo[2.2.1]hept-2-yl)-2-hydroxy-ethanone] | 18 nM |

The remaining lines, values ahead:

| Ki | Compound |
| --- | --- |
| 46 nM | O=C(C1CCOC1)N1CC2CN(Cc3ccc(Oc4nc5ccccc5s4)cc3)CC2C1 (centres unmarked) [Example 102, {5-[4-(Benzothiazol-2-yloxy)-benzyl]-hexahydro-pyrrolo[3,4-c]pyrrol-2-yl}-(tetrahydro-furan-3-yl)-methanone] |
| 7 nM | CC(=O)N1C[C@H]2C[C@@H]1CN2Cc1ccc(Oc2nc3ccccc3s2)cc1 [Example 3, (R,R)-1-{5-[4-(Benzothiazol-2-yloxy)-benzyl]-2,5-diaza-bicyclo[2.2.1]hept-2-yl}-ethanone] |
| 43 nM | c1ccc2sc(Oc3ccc(OCCN4C[C@@H]5C[C@H]4CN5)cc3)nc2c1 [Example 9B, (S,S)-2-{4-[2-(2,5-Diaza-bicyclo[2.2.1]hept-2-yl)-ethoxy]-phenoxy}-benzothiazole trifluoroacetate] |
| 12 nM | CC(=O)N1CC2CN(CCOc3ccc(Oc4nc5ccccc5s4)cc3)CC2C1 (centres unmarked) [Example 94, 1-(5-{2-[4-(Benzothiazol-2-yloxy)-phenoxy]-ethyl}-hexahydro-pyrrolo[3,4-c]pyrrol-2-yl)-ethanone] |
| 168 nM | O=C([C@H]1CCCO1)N1CC2CN(Cc3ccc(Oc4nc5ccccc5s4)cc3)CC2C1 (stereo partly drawn) [Example 100, (R)-{5-[4-(Benzothiazol-2-yloxy)-benzyl]-hexahydro-pyrrolo[3,4-c]pyrrol-2-yl}-(tetrahydro-furan-2-yl)-methanone] |
| 57 nM | NC(=O)N1CCC2CN(Cc3ccc(Oc4nc5ccccc5s4)cc3)CC21 (centres unmarked) [Example 135, 5-[4-(Benzothiazol-2-yloxy)-benzyl]-hexahydro-pyrrolo[3,4-b]pyrrole-1-carboxylic acid amide] |
| 101 nM | NC(=O)N1CC2CN(Cc3ccc(Oc4nc5ccc(F)cc5s4)cc3)CC2C1 (centres unmarked) [Example 144, 5-[4-(6-Fluoro-benzothiazol-2-yloxy)-benzyl]-hexahydro-pyrrolo[3,4-c]pyrrole-2-carboxylic acid amide] |
| 13 nM | O=C(NCc1ccco1)N1CC2CN(Cc3ccc(Oc4nc5ccccc5s4)cc3)CC2C1 (centres unmarked) [Example 131, 5-[4-(Benzothiazol-2-yloxy)-benzyl]-hexahydro-pyrrolo[3,4-c]pyrrole-2-carboxylic acid (furan-2-ylmethyl)-amide] |
| 78 nM | Cc1ccc2nc(Oc3ccc(CCN4CC5CN(C(N)=O)CC5C4)cc3)sc2c1 (centres unmarked) [Example 146] |
| 20 nM | O=C(c1cccs1)N1CC2CN(Cc3ccc(Oc4nc5ccccc5s4)cc3)CC2C1 (centres unmarked) [Example 107, {5-[4-(Benzothiazol-2-yloxy)-benzyl]-hexahydro-pyrrolo[3,4-c]pyrrol-2-yl}-thiophen-2-yl-methanone] |
| 11 nM | CC(=O)N1C[C@H]2C[C@@H]1CN2CCOc1ccc(Oc2nc3cccc(F)c3s2)cc1 [Example 249, (R,R)-1-(5-{2-[4-(7-Fluoro-benzothiazol-2-yloxy)-phenoxy]-ethyl}-2,5-diaza-bicyclo[2.2.1]hept-2-yl)-ethanone] |
